According to patent US20180049425A1, “Bait Composition” (priority 2016, published 2018):

Experiments:
[1] = system: feral pigs; conditions: bait containing 0.13% warfarin by weight of the bait; McIlroy et al.; cited from earlier work
[2] = system: feral hogs; experiment: studies using the instant feral hog control system with low dose warfarin bait; format: in vivo, Sus scrofa
Excerpt: As to particular studies, death of the feral hogs (2) occurred within not greater than about five days following exposure to the bait (3).

[3] = system: feral pigs; conditions: bait containing 0.09% warfarin by weight of the bait; Saunders et al.; cited from earlier work
[4] = bait with about 0.005% warfarin by weight of the bait
[5] = bait with about 0.01% warfarin by weight of the bait

SMILES: CC(=O)CC(c1ccccc1)c1c(O)c2ccccc2oc1=O (stereo not drawn) [warfarin]
- feral pigs dying [1]: 30 of 32
- time of dying after bait distribution (mean±s.e.) [1]: 9.7 ± 0.4 days
- death of the feral hogs following exposure to the bait [2, 4]: ten
- mortality rate [2, 4]: 100%
- death of the feral hogs following exposure to the bait, particular studies [2, 4]: five
- death of the feral hogs following exposure to the bait [2, 5]: ten
- mortality rate [2, 5]: 100%
- death of the feral hogs following exposure to the bait, particular studies [2, 5]: five
- first death recorded after bait distribution [3]: six
